Molecules are shown by their SMILES.

This assay has as its target T1, Axl (Homo sapiens, UniProt P30530).
T1 construct: endogenous in cells; host or cells: HeLa cells
T1 sequence (P30530 26-894): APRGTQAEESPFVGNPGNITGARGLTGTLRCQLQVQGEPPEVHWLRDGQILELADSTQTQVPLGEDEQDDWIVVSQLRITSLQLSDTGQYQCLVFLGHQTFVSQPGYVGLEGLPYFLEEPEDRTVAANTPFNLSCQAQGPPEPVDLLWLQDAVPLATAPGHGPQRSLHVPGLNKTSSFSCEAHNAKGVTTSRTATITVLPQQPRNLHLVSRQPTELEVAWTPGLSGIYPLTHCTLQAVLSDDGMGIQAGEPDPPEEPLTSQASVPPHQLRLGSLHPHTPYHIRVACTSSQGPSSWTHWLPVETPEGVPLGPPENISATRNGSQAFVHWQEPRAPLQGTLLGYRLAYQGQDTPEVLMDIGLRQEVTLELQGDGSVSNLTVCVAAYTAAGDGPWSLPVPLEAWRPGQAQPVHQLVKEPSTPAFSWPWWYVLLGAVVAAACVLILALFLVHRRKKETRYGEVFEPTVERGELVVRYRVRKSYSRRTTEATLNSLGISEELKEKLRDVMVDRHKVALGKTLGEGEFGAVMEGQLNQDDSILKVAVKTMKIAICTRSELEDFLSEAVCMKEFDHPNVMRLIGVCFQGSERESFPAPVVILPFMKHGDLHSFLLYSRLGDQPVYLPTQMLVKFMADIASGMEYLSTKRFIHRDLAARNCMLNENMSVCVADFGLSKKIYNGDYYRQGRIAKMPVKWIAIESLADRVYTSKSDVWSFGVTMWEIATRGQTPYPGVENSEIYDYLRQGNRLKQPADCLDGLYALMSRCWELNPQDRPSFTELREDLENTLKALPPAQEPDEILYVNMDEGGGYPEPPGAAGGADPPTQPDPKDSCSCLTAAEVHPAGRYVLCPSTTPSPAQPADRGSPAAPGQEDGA
Kind of assay: Phospho-Akt in-cell Western assay (inhibition of Axl activity). Format: cell-based. Summed up:
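HeLa cells on poly-L-lysine, starved 24 h in 0.5% FCS DMEM with Axl/Fc 500 ng/mL, pre-treated with compound 1 h at 37° C. Axl stimulated 5 min by anti-Axl/anti-mouse antibody cross-linking. Fixed cells probed with anti-phospho-Akt and HRP secondary, chemiluminescence read.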

Setting [1] is: Table 7, Hela cells, Axl antibody cross-linking stimulation, phospho-Akt chemiluminescence.
The mark [2] stands for this setting: Table 5, Hela cells, Axl antibody cross-linking stimulation, phospho-Akt chemiluminescence.
Setting [3] is: inhibition of Axl activity, Table 1.
The mark [4] stands for this setting: inhibition of Axl activity, phospho-Akt in-cell Western assay, Table 1.

Broadly, the IC50 is the midpoint of a concentration-inhibition curve. A high value points to weaker potency in that assay. `CC(=O)N(C)c1ccc(Nc2nc(N)n(C(=O)Nc3ccc(C(C)C)cc3)n2)cc1` [compound 179, 3-[4-(acetyl(methyl)amino)phenyl]amino-5-amino-N-(4-(iso-propyl)phenyl)-1H-1,2,4-triazole-1-carboxamide] returned a half-maximal inhibitory concentration (IC50) under setting [1] of 1 to 10 µM.

For `Cc1cccc(C(=O)n2nc(Nc3ccc4oc(CO)cc4c3)nc2N)c1` [compound 136, 5-amino-3-(2-(hydroxymethyl)benzofuran-5-yl)amino-1-(3-(methyl)phenyl)carbonyl-1H-1,2,4-triazole], the IC50 under setting [2] lay within 1 to 10 µM.

In the case of `Cc1cccc(C(=O)n2nc(Nc3cccc(OCS(C)(=O)=O)c3)nc2N)c1` [compound 235, 5-amino-1-(3-methylphenyl)carbonyl-3-[3-(methylsulfonylmethoxy)phenyl]amino-1H-1,2,4-triazole], under setting [3], the IC50 fell in the range of 1 to 10 µM.

Under “Table 2, Hela cells, Axl antibody cross-linking stimulation, phospho-Akt chemiluminescence”, `Cc1ccc(C(=O)n2nc(N)nc2Nc2ccc3c(c2)OCCO3)cc1C` [compound 236, 3-amino-1-(3,4-dimethylphenyl)carbonyl-5-(1,4-benzodioxan-6-yl)amino-1H-1,2,4-triazole] gave an IC50 of over 20 µM.

As to `Cc1cccc(C(=O)n2nc(Nc3ccc4cnn(C)c4c3)nc2N)c1` [compound 254, 5-amino-3-(1H-1-methyl-indazol-6-yl)amino-1-(3-methylphenyl)carbonyl-1H-1,2,4-triazole], the IC50 under setting [2] was over 20 µM.

Under setting [3], `CS(=O)(=O)c1ccc(C(=O)n2nc(Nc3ccc4c(c3)OCCO4)nc2N)cc1` [compound 248, 5-amino-3-(1,4-benzodioxan-6-yl)amino-1-[(4-methylsulfonyl)phenyl]carbonyl-1H-1,2,4-triazole] showed an IC50 of over 20 µM.

The molecule `CC(C)(C)OC(=O)NC1CCOc2ccc(Nc3nc(N)n(C(=O)c4ccc(OC(C)(C)C)cc4)n3)cc21` (centres unmarked) [compound 275] yielded an IC50 under setting [2] of over 20 µM.

As to `CN(C)c1ccc(C(=O)n2nc(N)nc2NC2C3C=CC(C3)C2C(N)=O)cc1` (centres unmarked) [compound 349, 3-amino-1-(4-(dimethylamino)phenyl)carbonyl-5-[(3-(aminocarbonyl)bicyclo[2.2.1]hept-5-en-2-yl)amino]-1H-1,2,4-triazole], the IC50 (Table 6, Hela cells, Axl antibody cross-linking stimulation, phospho-Akt chemiluminescence) is over 20 µM.

On to `COc1cc(Nc2nc(N)n(C(=O)c3ccc(-c4csnn4)cc3)n2)ccc1OCCN1CCCC1` [compound 319, 5-amino-1-(4-(1,2,3-thiadiazol-4-yl)phenyl)carbonyl-3-[3-methoxy-4-[2-(pyrrolidin-1-yl)ethoxy]phenylamino]-1H-1,2,4-triazole], for which the half-inhibitory concentration (IC50) under setting [4] is under 1 µM.

Turning to `Nc1nc(Nc2ccc(OCCN3CCCCC3)cc2)nn1C(=O)c1ccc2c(c1)OCO2` [compound #13, 5-Amino-1-(1,3-benzodioxol-5-yl)carbonyl-3-[4-[2-(piperidin-1-yl)ethoxy]phenylamino]-1H-1,2,4-triazole], the IC50 under setting [4] was under 1 µM.

`Cc1ccc(NC(=O)n2nc(Nc3ccc(OCCN4CCCCC4)cc3)nc2N)cc1` [compound 39, 5-amino-N-(4-methylphenyl)-3-[4-[2-(piperidin-1-yl)ethoxy]phenylamino]-1H-1,2,4-triazole-1-carboxamide] yielded a half-inhibitory concentration (IC50) under setting [1] of 1 to 10 µM.

Regarding `Cc1cccc(C(=O)n2nc(Nc3ccc4c(cnn4C)c3)nc2N)c1` [compound 227, 5-amino-3-[1-methyl-1H-indazol-5-yl]amino-1-(3-methylphenyl)carbonyl-1H-1,2,4-triazole], the half-maximal inhibitory concentration (IC50) under setting [2] fell in the range of 1 to 10 µM.

Consider `CC(C)Oc1ccc(C(=O)n2nc(Nc3ccc(N4CCOCC4)cc3)nc2N)cc1` [compound 48, 5-amino-1-(4-(iso-propoxy)phenyl)carbonyl-3-(4-(morpholin-4-yl)phenylamino]-1H-1,2,4-triazole], for which, under setting [3], the half-maximal inhibitory concentration (IC50) was under 1 µM.

`COc1cccc(NC(=O)n2nc(Nc3ccc(OCCN4CCCC4)cc3)nc2N)c1` [compound 32, 5-amino-N-(3-methoxyphenyl)-3-[4-[2-(pyrrolidin-1-yl)ethoxy]phenylamino]-1H-1,2,4-triazole-1-carboxamide] came in with an IC50 under setting [1] of under 1 µM.

As to `CC(C)(C)Oc1ccc(C(=O)n2nc(Nc3ccc(N4CCOCC4)cc3)nc2N)cc1` [compound 57, 5-amino-3-(4-(morpholin-4-yl)phenylamino)-1-(4-(tert-butoxy)phenyl)carbonyl-1H-1,2,4-triazole], the IC50 under setting [3] is under 1 µM.

The molecule `CC(C)(C)c1ccc(C(=O)n2nc(Nc3ccc(N4CCCC4)cc3)nc2N)cc1` [compound 297, 5-amino-1-(4-(tert-butyl)phenyl)carbonyl-3-[4-(pyrrolidin-1-yl)phenylamino]-1H-1,2,4-triazole] gave a concentration for half-maximal inhibition (IC50) under setting [4] of over 20 µM.

Molecule `CC(C)Oc1ccc(Nc2nc(N)n(C(=O)c3ccc(OC(C)C)cc3)n2)cc1` [compound 111, 5-amino-3-[4-(iso-propoxy)phenylamino]-1-(4-(iso-propoxy)phenyl)carbonyl-1H-1,2,4-triazole] gave an IC50 under setting [3] of 1 to 10 µM.

`CN(C)c1ccc(C(=O)n2nc(NC3C4C=CC(C4)C3C(N)=O)nc2N)cc1` (centres unmarked) [compound 350, 5-amino-1-(4-(dimethylamino)phenyl)carbonyl-3-[(5-(aminocarbonyl)bicyclo[2.2.1]hept-2-en-6-yl)amino]-1H-1,2,4-triazole] came in with an IC50 under setting [2] of over 20 µM.

On to `Nc1nc(Nc2ccc(OCCN3CCCC3)cc2)nn1C(=O)c1ccc(N2CCCCC2)cc1` [compound 401, 5-amino-1-(4-(piperidin-1-yl)phenyl)carbonyl-3-[4-[2-(pyrrolidin-1-yl)ethoxy]phenylamino]-1H-1,2,4-triazole], for which, under setting [4], the IC50 was under 1 µM.

In turn, `Cc1ccc(C(=O)n2nc(Nc3cccc(F)c3)nc2N)cc1` [compound 124, 5-amino-3-[3-(fluoro)phenylamino]-1-(4-(methyl)phenyl)carbonyl-1H-1,2,4-triazole] came in with an IC50 under setting [3] of 10 to 20 µM.

For the molecule `Nc1nc(Nc2ccc3c(c2)OCCO3)nn1C(=O)c1cccc(OCCN2CCOCC2)c1` [compound 150, 5-amino-3-(1,4-benzodioxan-6-yl)amino-1-[3-[2-(morpholin-4-yl)ethoxy]phenyl]carbonyl-1H-1,2,4-triazole], under setting [3], the IC50 was over 20 µM.

On to `Cc1cccc(C(=O)n2nc(Nc3ccc4c(c3)OCCO4)nc2N)c1` [compound 96, 5-amino-3-(1,4-benzodioxan-6-yl)amino-1-(3-(methyl)phenyl)carbonyl-1H-1,2,4-triazole], for which the concentration for half-maximal inhibition (IC50) under setting [3] is 1 to 10 µM.

`CCCCOc1ccc(NC(=O)n2nc(Nc3ccc(N(C)C(C)=O)cc3)nc2N)cc1` [compound 180, 3-[4-(acetyl(methyl)amino)phenyl]amino-5-amino-N-(4-(butoxy)phenyl)-1H-1,2,4-triazole-1-carboxamide]: the 50% inhibitory concentration (IC50) under setting [1] fell in the range of 1 to 10 µM.

In the case of `CC(C)Oc1ccc(Nc2nc(N)n(C(=O)c3cccc(O)c3)n2)cc1` [compound 73, 5-amino-1-(3-(hydroxy)phenyl)carbonyl-3-[4-(iso-propoxy)phenylamino]-1H-1,2,4-triazole], the IC50 under setting [3] lay in the range of 1 to 10 µM.

Regarding `CN(c1ccc(OCCN2CCCC2)cc1)c1nc(N)n(C(=O)c2ccc(OC(C)(C)C)cc2)n1` [compound 272, 5-amino-1-(4-(tert-butoxy)phenyl)carbonyl-3-[4-[2-(pyrrolidin-1-yl)ethoxy]phenyl][methyl]amino-1H-1,2,4-triazole], under setting [4], the IC50 was over 20 µM.

As to `COc1cccc(NC(=O)n2nc(Nc3ccc(OCCN4CCCCC4)cc3)nc2N)c1` [compound 30, 5-amino-N-(3-methoxyphenyl)-3-[4-[2-(piperidin-1-yl)ethoxy]phenylamino]-1H-1,2,4-triazole-1-carboxamide], the half-maximal inhibitory concentration (IC50) under setting [1] is under 1 µM.

For `CN1CCN(c2ccc(Nc3nc(N)n(C(=O)C4CC5CCC4C5)n3)cc2)CC1` (centres unmarked) [compound 365, 5-amino-1-(bicyclo[2.2.1]heptan-2-yl)carbonyl-3-[4-(4-methylpiperazin-1-yl)phenylamino]-1H-1,2,4-triazole], the IC50 (Table 3, Hela cells, Axl antibody cross-linking stimulation, phospho-Akt chemiluminescence) is over 20 µM.

In turn, `CN(C)c1ccc(C(=O)n2nc(Nc3ccc(N4CCCC4)cc3)nc2N)cc1` [compound 299, 5-amino-1-(4-(dimethylamino)phenyl)carbonyl-3-[4-(pyrrolidin-1-yl)phenylamino]-1H-1,2,4-triazole] returned an IC50 under setting [4] of 1 to 10 µM.

As to `N#Cc1ccc(NC(=O)n2nc(Nc3ccc(OCCN4CCCCC4)cc3)nc2N)cc1` [compound 194, 5-amino-N-(4-cyanophenyl)-3-[4-[2-(piperidin-1-yl)ethoxy]phenylamino]-1H-1,2,4-triazole-1-carboxamide], the concentration for half-maximal inhibition (IC50) under setting [1] is over 20 µM.

For the origin of these results see patent US8389557B2, “Triazole derivatives useful as Axl inhibitors” (Rigel Pharmaceuticals, Inc., priority 2005, dated 2013).
